Assay results as given in article PMC5905287, “Synthesis and in vitro biochemical evaluation of oxime bond-linked daunorubicin–GnRH-III conjugates developed for targeted drug delivery” (Beilstein Journal of Organic Chemistry, 2018).
Like-named read-outs stand apart in the source and are kept apart here. Non-standard residues stand in square brackets, D forms with d. Residues, ends and D or L forms follow the SMILES beside them. *: point of attachment. Daunorubicin(13-NOCH2CO) = COc1cccc2c1C(=O)c1c(O)c3c(c(O)c1C2=O)C[C@@](O)(C(C)=NOCC(=O)*)C[C@@H]3O[C@H]1C[C@H](N)[C@H](O)[C@H](C)O1; pGlu = O=C1CC[C@@H](C(=O)O)N1; Butyryl = CCCC(=O)*

Experiments:
[1] = test system: MCF-7 human breast cancer cell line; test: In vitro cytostatic effect, alamarBlue assay, MCF-7; assay type: cell-based; conditions: MCF-7, 10 µM
Source text: (§1) Cell lines often function as the first model system of choice to study biological processes or to test the efficiency of drugs or drug conjugates and their cytotoxic effects. Immortal cell lines offer various benefits, for instance they are easy to handle, cost-effective and provide consistent sample and reproducible results. Nevertheless, cell lines also present the disadvantage that after a period of continuous growth, cell characteristics can change and dedifferentiate in culture. The serial passaging can cause genotypic and phenotypic variations and the state of confluency can also affect gene expression pattern in some cell lines. Due to this, the usage of internal standards during the evaluation of new potential candidates might be necessary to ensure comparability with previous results. The cytostatic effect of the novel GnRH-III bioconjugates was determined on HT-29 human colon cancer and MCF-7 human breast cancer cell lines by alamarBlue® assay. For a better comparison, the well-studied bioconjugates GnRH-III–[^8Lys(Dau=Aoa)] (K1) and GnRH-III–[^4Lys(Bu), ^8Lys(Dau=Aoa)] (K2) were used as positive controls and internal standards. The corresponding IC50 values were calculated by using nonlinear regression (sigmoidal dose response) (Figure 3, Table 2). Unfortunately, the D-Trp containing compounds 3 and 6 started to precipitate in both cell culture media at higher concentrations limiting the concentration down to a maximum of 10 µM. This effect could not be prevented by using DMSO instead of ddH2O for the preparation of the stock solutions. Unfortunately, the lower concentration range with a maximum of 10 µM was not sufficient to achieve the dose-response. […] Nevertheless, the replacement of ^6Asp by D-Asp, D-Glu or D-Trp led to a decreased cytostatic effect on the estimated cancer cell lines.
(§2) MCF-7 human breast adenocarcinoma cells were cultured in Dulbecco’s Modified Eagle Medium (DMEM, Lonza, Basel, Switzerland), supplemented with 10% (v/v) fetal bovine serum (FBS, Lonza), L-glutamine (2 mM, Lonza), non-essential amino acids (NEAA, Sigma-Aldrich Kft), sodium pyruvate (1 mM, Lonza) and penicillin-streptomycine (Lonza). […]
(§3) Cells were seeded to 96-well plates (Sarstedt, Nümbrecht, Germany, 5 × 10^3 cells/well) one day prior to the treatment in complete cell medium. […] Fluorescence was detected using Synergy H4 multi-mode microplate reader (BioTek, Winooski, VT, USA), excitation and emission wavelengths were set to 570 and 620 nm, respectively. Cytostasis was measured using 4 parallels, each experiment was repeated twice. Cytostatic effect (and IC50 values) were calculated by using nonlinear regression (sigmoidal dose response) with Origin Pro8 (OriginLab Corp., Northampton, MA, USA.).

[2] = test system: HT-29 human colon cancer cell line; test: In vitro cytostatic effect, alamarBlue assay, HT-29; assay type: cell-based; conditions: HT-29, 10 µM
Source text: as §1, §2, §3

[3] = Degradation in rat liver lysosomal homogenate (LC-MS); assay type: in vitro ADME; conditions: rat liver lysosomal homogenate, 37 °C, pH 5
Experimental: In order to gain insight into the cellular release of the drug, the degradation of the Dau–GnRH-III derivatives 1–6, K1 and K2 was determined in the presence of rat liver lysosomal homogenate at 37 °C. […] However, the degradation level and the cleavage sites within the GnRH-III sequence differ considerably depending on the incorporated amino acids, whereby the hydrolyses of the C-terminus (H-Gly-NH2 and H-Pro-Gly-NH2) occurred first in all eight GnRH-III derivatives. Due to the high chemical and enzymatic stability of the oxime bond, no free Dau was detected by LC–MS. In accordance with our previous results, the digestion of the two peptides containing L-Asp in position 6 (K1, K2) provided the smallest Dau-containing metabolite (H-Lys(Dau=Aoa)-OH, m/z 729.36 [M + H]^+). This metabolite could already be detected after 1 hour of incubation in case of K2 and after 2 hours in case of K1. […] It might be assumed that D-Trp of GnRH-III–[^4Lys(Bu), ^6D-Tpr, ^8Lys(Dau=Aoa)] (6) is also accepted at the cleavage site, but due to the prior hydrolysis of the ^7Trp-^8Lys(Dau=Aoa)-bond an evidential fragment has not been detected. A reason for these diversities might be the subsite specificities of the lysosomal proteases. For instance, lysosomal cysteine proteases also known as cathepsins show a broad substrate specificity. […] For instance, the analyzed fragments of the ^6L-Asp derivatives gave clear hints for the presence of endopeptidases, while the digestion of the ^6D-Aaa compounds 1–3 gave only fragments which evidence the activity of exomono- and/or dipeptidases. Moreover, the obtained results for the bioconjugates that contain ^4Lys(Bu) (K2, 4–6) instead of serine indicate a proteolytic cleavage by lysosomal endopeptidases, which might be of great importance for the release of the smallest Dau-containing metabolite.
The rat liver lysosomal homogenate was prepared as previously described. The protein concentration was determined by Qubit Protein Assay Kit according to the manufacturer’s protocol (ThermoFisher Scientific, Waltham, MA, USA). The bioconjugates were dissolved in ddH2O to a concentration of 5 µg/µL. The reaction was carried out in 0.2 M NaOAc buffer (pH 5), with an identical concentration of bioconjugate and rat liver lysosomal homogenate (0.25 µg/µL). The reaction mixtures were incubated at 37 °C and aliquots of 15 µL were taken at 5 min, 1 h, 2 h, 4 h, 8 h and 24 h and quenched with 2 µL of acetic acid. The analysis of the samples was performed by LC–MS.

[4] = design: method as in PMID 20953647, PMID 21668011; conditions: 90% human serum, 37 °C; ref [26],[38]; cited from earlier work
trypsin = test system: trypsin; design: method as in PMID 20953647, PMID 21668011; conditions: 37 °C; ref [26],[38]; cited from earlier work
GnRH-RI [5] = biological target: T1, GnRH-RI (Homo sapiens, UniProt P30968); design: method as in PMID 22967796, PMID 25908176; conditions: human pituitary tissue; ref [29],[50]; read-out: IC50 pituitary (reported values); cited from earlier work
T1 sequence (P30968 1-328): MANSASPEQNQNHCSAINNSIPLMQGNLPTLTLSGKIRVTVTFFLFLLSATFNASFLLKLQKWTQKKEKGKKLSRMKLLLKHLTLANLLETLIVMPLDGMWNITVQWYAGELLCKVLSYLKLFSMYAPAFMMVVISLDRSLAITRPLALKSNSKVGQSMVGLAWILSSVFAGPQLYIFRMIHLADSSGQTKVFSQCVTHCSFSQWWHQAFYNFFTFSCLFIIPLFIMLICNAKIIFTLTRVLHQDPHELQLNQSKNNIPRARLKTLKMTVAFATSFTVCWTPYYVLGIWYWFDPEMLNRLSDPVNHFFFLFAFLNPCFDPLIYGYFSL

GnRH-RI [6] = biological target: T1, GnRH-RI; design: human prostate cancer cells were obtained from a patient at the time of initial surgical treatment; from tissue; host or cells: human prostate cancer specimen from a patient (surgery); membrane homogenate; method as in PMID 22967796, PMID 25908176; conditions: human prostate cancer tissue; ref [29],[50]; read-out: IC50 prostate cancer (reported values); cited from earlier work
GnRH-receptor = test system: GnRH-receptor; design: method as in PMID 10647698, PMID 20859992; conditions: 1 pM to 1 µM; ref [51]–[52]; cited from earlier work

In the case of `COc1cccc2c1C(=O)c1c(O)c3c(c(O)c1C2=O)C[C@@](O)(C(C)=NOCC(=O)NCCCC[C@H](NC(=O)[C@H](Cc1c[nH]c2ccccc12)NC(=O)[C@@H](Cc1c[nH]c2ccccc12)NC(=O)[C@H](Cc1c[nH]cn1)NC(=O)[C@H](CO)NC(=O)[C@H](Cc1c[nH]c2ccccc12)NC(=O)[C@H](Cc1c[nH]cn1)NC(=O)[C@@H]1CCC(=O)N1)C(=O)N1CCC[C@H]1C(=O)NCC(N)=O)C[C@@H]3O[C@H]1C[C@H](N)[C@H](O)[C@H](C)O1` [compound 3, [6D-Trp, 8Lys(Dau=Aoa)]] ([pGlu]HWSH[dW]WK(Daunorubicin(13-NOCH2CO))PG-NH2), the “cell viability at the highest concentration” value (“cell viability” for short) [1] is reported as 69%, the “cell viability” value [2] is reported as 58% and the “incubation time after which the smallest Dau-containing metabolite H-Lys(Dau=Aoa)-OH was detected” value [3] is reported as 4 h.
In the case of `CCCC(=O)NCCCC[C@H](NC(=O)[C@H](Cc1c[nH]c2ccccc12)NC(=O)[C@H](Cc1c[nH]cn1)NC(=O)[C@@H]1CCC(=O)N1)C(=O)N[C@@H](Cc1c[nH]cn1)C(=O)N[C@H](Cc1c[nH]c2ccccc12)C(=O)N[C@@H](Cc1c[nH]c2ccccc12)C(=O)N[C@@H](CCCCNC(=O)CON=C(C)[C@]1(O)Cc2c(O)c3c(c(O)c2[C@@H](O[C@H]2C[C@H](N)[C@H](O)[C@H](C)O2)C1)C(=O)c1c(OC)cccc1C3=O)C(=O)N1CCC[C@H]1C(=O)NCC(N)=O` [compound 6, GnRH-III–[^4Lys(Bu), ^6D-Tpr, ^8Lys(Dau=Aoa)]] ([pGlu]HWK(Butyryl)H[dW]WK(Daunorubicin(13-NOCH2CO))PG-NH2), the “cell viability” value [1] is reported as 53%, the “cell viability” value [2] is reported as 55% and the “incubation time after which the smallest Dau-containing metabolite H-Lys(Dau=Aoa)-OH was detected” value [3] is reported as 2 h.
For GnRH-III–[^4Lys(Ac), ^8Lys(Dau=Aoa)], the “time stable in human serum” value [4] is listed as “at least 24 h” and the “time stable in trypsin” value (trypsin) is listed as “at least 24 h”.
In the case of “GnRH-II–[D-Lys^6(Dau=Aoa)] (QHWSHKWYPG; N-terminal pyroglutamate (from Gln1); D-Lys at position 6, with daunorubicin oxime-linked through aminooxyacetyl on its epsilon-amine (Dau=Aoa); C-terminal amide; Decapeptide limits by convention (mat) [earlier reported daunorubicin–GnRH-II conjugate]”, the IC50 (GnRH-RI [5]) is given as 4.2 nM and the IC50 (GnRH-RI [6]) is given as 2.1 nM.
For bombesin, the “displacement of [125I]-triptorelin” value (GnRH-receptor) is given as “could not inhibit the receptor binding”.
For buserelin, the “displacement of [125I]-triptorelin” value (GnRH-receptor) is listed as “displaced [^125I]-triptorelin completely”.
For cetrorelix, the “displacement of [125I]-triptorelin” value (GnRH-receptor) is listed as “displaced [^125I]-triptorelin completely”.
In the case of somatostatin-14, the “displacement of [125I]-triptorelin” value (GnRH-receptor) is given as “could not inhibit the receptor binding”.
